Non-standard residues stand in square brackets, D forms with d. Residues, ends and D or L forms follow the SMILES beside them. No end group written: not given here.
Assay: Blood Brain Barrier (BBB) penetration assay, ELISA of spinal fluid after I.P. injection
Assay type: in vivo, mice
Conditions: for level of the polypeptide in mice brain following injection: I.P. 60 mg/kg in 5% mannitol, spinal fluid collected after 1 hour, ELISA, compared to 5% mannitol control
Method: ICR female mice having initial body weight of 20-22 grams were used (Envigo).
A control group of 6 mice was injected intraperitoneally (I.P.) with 5% mannitol solution and another group of 6 mice was injected I.P. with the polypeptide dTCApFs (also termed herein Nerofe, at 60 mg/kg) in a 5% mannitol solution. Spinal fluid was collected after the injection (1 hour) and subjected to ELISA analysis of dTCApFs (Nerofe), as detailed below.
Mice were injected with 60 mg/kg D-amino acid dTCApFs (Nerofe), and cerebrospinal fluid (about 10 μl) and serum were collected after 1 hr, and frozen. A calibration curve was prepared by serial dilutions of the polypeptide in PBS (Biological industries, 02-023-5A) as noted in table 1 below.
Next, the cerebrospinal samples were thawed and kept on ice, and then diluted in 220 μl PBS. Sample loading was next performed by loading 100 μl duplicates of each sample and of the standard in a Maxisorp 96-wells plate (NUNC, F96 Maxisorp, 442404). The plate was sealed and incubated at 4° C. overnight with gentle shaking. The plate was washed by removing the liquid and washing the plate four (4) times using a multi-pipette or an automated washer with 300 μl 0.05% TW-20 (Amresco, 0777-1L) in PBS. The samples were blocked by diluting 5% BSA (MP biomedicals, 160069) in PBS. Then, 300 μl of the blocking buffer were loaded in each well and the plate was incubated at room temperature (R.T.) for 1 hour with gentle shaking. The Plates were washed again, as described above.
Detection was performed by diluting the first antibody according to table 1 below in diluent (0.05% TW-20, 0.1% BSA in PBS). Then, 100 μl of detection antibody were loaded into each well and the plate was incubated at R.T. for 2:00 hours with gentle shaking. The plate was washed again as detailed above. […]
Development was performed by adding 100 μl TMB (Milipore, ES001-500ML) to each well, and waiting for blue color development, then adding 100 μl 2N H2SO4 (Frutarom, 5552540). Plate reading was performed in a microplate reader, by checking the wells absorbance at 450 nm. […]

Compound	level of the polypeptide in mice brain following injection	penetration ability of the BBB (mice, I.P. 60 mg/kg)
CC(C)C[C@@H](NC(=O)[C@H](NC(=O)[C@@H](CO)NC(=O)[C@H]1CCCN1C(=O)[C@@H](CC(C)C)NC(=O)[C@@H](Cc1ccccc1)NC(=O)[C@@H](Cc1ccccc1)NC(=O)[C@H](NC(=O)[C@@H](Cc1c[nH]c2ccccc12)NC(=O)[C@H](N)Cc1c[nH]c2ccccc12)[C@H](C)O)[C@H](C)O)C(=O)N[C@H](Cc1c[nH]c2ccccc12)C(=O)N[C@H](CCC(=O)O)C(=O)N[C@H](CCCNC(=N)N)C(=O)N[C@H](CCCCN)C(=O)O [dTCApFs, Trp Trp Thr Phe Phe Leu Pro Ser Thr Leu Trp Glu Arg Lys] (H-[dW][dW][dT][dF][dF][dL][dP][dS][dT][dL][dW][dE][dR][dK]-OH; N-terminus and C-terminus assumed)	dramatically increased	good penetration ability of the BBB
WWTFFLPSTLWERK [L-amino acid polypeptide, Trp Trp Thr Phe Phe Leu Pro Ser Thr Leu Trp Glu Arg Lys, reference compound]	changed insignificantly	

Reference: patent US20240009277A1, “POLYPEPTIDES FOR USE IN THE TREATMENT AND PREVENTION OF NEURODEGENERATIVE DISEASES” (IMMUNE SYSTEM KEY LTD., priority 2020, published 2024)
